# Like-named read-outs stand apart in the source and are kept apart here. Where no end group is shown, it is not given here.
# B1: (S7A)HN-DYKDDDDK (S7A-FLAG) (peptide)
# peptide: MAPRGFACLLLLTSEIDLPVKRRADYKDDDDK
# notes: Synthetic C-terminally FLAG-tagged peptide; also called (S7A)HN-FLAG
# Tests used:
# [1] = tested on: primary cultured neurons treated with 25 μM Aβ1-43; assay type: cell-based
# Description: (§1) In one assay, transfection with V642I-APP causes cell death in F11 neuronal hybrid cells. In the other, treatment with Aβ peptides causes cell death in primary cultured cortical neurons.
# (§2) The primary culture of mouse cortical neurons was performed in poly-L-lysine-coated 24-well plates or 96-well plates (Sumitomo Bakelite, Akita, Japan), in the absence of serum and the presence of N2 supplement, as described previously. The purity of neurons by this method was >98%. Prepared neurons (for neurons seeded in 96-well plates: 2.5×10^4 or 5×10^4 cells/well, 100 μl culture medium/well; for neurons seeded in 24-well plates: 1.25×10^5 cells/well, 250 μl culture medium/well) were preincubated with or without 10 μM (in case for the experiment with 10 μM HN) synthetic HN for 16 hr, and treated with 25 μM Aβ in the presence or absence of 10 μM HN for 72 hr, respectively. As primary neurons were vulnerable to transient dryness during medium exchange, we treated neurons with 25 μM Aβ as follows. First, a half volume (50 μl for neurons in 96-well plates; 125 μl for neurons in 24-well plates) of old medium was discarded. Then, the same volume (50 μl for neurons in 96-well plates; 125 μl for neurons in 24-well plates) of prewarned fresh medium containing 10 μM HN and 50 μM Aβ (Aβ was directly resolved) was added to the culture. The Aβ peptides used at 25 μM to induce neurotoxicity formed aggregation in the medium during the cell culture at 37° C. for 72 hr. as described. The WST-8 cell viability assay was performed, using Cell Counting Kit-8 (Wako Pure Chemical Industries, Osaka, Japan), as described previously.
# (§3) Calcein assay was performed with Calcein-AM {3′,6′-di-(O-acetyl)-2′,7′-bis [N,N-bis(carboxymethyl)aminomethyl] fluorescein, tetraacetoxymethyl ester; Dojindo}, as described previously. These assays were simultaneously performed in the experiments with neurons seeded in 96-well plates, as follows. Seventy-two hours after Aβ treatment, cells were added with the mixture of 10 μl WST-8 solution and 1 μl of 600 μM Calcein-AM. After 2 hr incubation in a CO2 incubator at 37° C., WST-8 absorbance was measured as OD450. After exchanging the medium to PBS to lower the background, Calcein-specific fluorescence (ex=485 nm, em=535 nm) was observed by fluorescence microscopy or measured by a spectrofluorometer (Wallac1420 ARVOsx Multi Label Counter). Most cell viability data using Calcein assay and WST-8 assay were obtained from neurons seeded at 5×10^4 cells/well in 96-well plates (high-density neurons) and confirmed by both assays with the cells seeded at 2.5×10^4 cells/well (low-density neurons).
# Some experiments for Calcein assay were performed with neurons seeded in 24-well plates. […] In most experiments using primary neurons, four independent experiments were performed and the means? S. D. of the results were discussed.
# Aβ and V642I-APP = assay type: cell-based; conditions: Table 5, marked **
# Description: (§4) F11 cells, the hybrid of a rat embryonic-day-13 primary cultured primary neuron and a mouse neuroblastoma cell, are one of the best models for primary cultured neurons as they carry representative characteristics of primary neurons, such as generation of action potentials without differentiation by NGF [22]. They have been used in various studies of is neuronal functions. Using these cells, the underlying mechanisms for cytotoxicity by V642I-APP have well been analyzed. Cytotoxicity by V642 mutants of APP has also been confirmed in multiple different systems. F11 cells were grown in Ham's F-12 (GibcoBRL, Gaithersburg, Md.) plus 18% fetal bovine serum (FBS; Hyclone, Logan, Utah) and antibiotics, as described previously. F11 cells (7×10^4 cell/well in a 6-well plate cultured in Ham's F-12 plus 18% FBS for 12-16 hr) were transfected with plasmids encoding FAD genes by lipofection [FAD cDNA 2 μg, LipofectAMINE 4 μl, PLUS reagent 8 μl (GibcoBRL)] in the absence of serum for 3 hr, and were incubated with Ham's F-12 plus 18% FBS for 2 hr. Then, culture media were changed to Ham's F-12 plus 10% FBS with or without HN peptides, and cells were cultured for an additional 67 hr. Seventy-two hr after transfection, cell mortality was measured by Trypan blue exclusion assay, performed as follows. Cells were suspended by pipetting gently, and 50 μl of 0.4% (finally 0.08%) Trypan blue solution (Sigma, St Louis, Mo.) was mixed with 200 μl of the cell suspension at room temperature. Stained cells were counted within 3 min after the mixture with Trypan blue solution.
# as §2
# as §3, with “Most cell viability data using Calcein assay and WST-8 assay were obtained from neurons seeded at 5×10^4 cells/well in 96-well plates (high-density neurons) and confirmed by both assays with the cells seeded at 2.5×10^4 cells/well (low-density neurons).” left out
# HN (self-dimerization) [2] = molecular target: T1, HN (self-dimerization) (Homo sapiens, UniProt Q8IVG9); experiment: Dimerization experiment (Ni-bead precipitation of FLAG-tagged peptide by (His)6-tagged peptide); assay type: binding; conditions: excess amounts of competitor
# T1 construct: host or cells: chemically synthesised peptide (no expression host)
# T1 sequence (Q8IVG9 whole entry): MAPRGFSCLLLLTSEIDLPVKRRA
# Description: (§5) Synthetic (His)6-tagged HN derivative peptides (1 nmol) was incubated with 20 μl of Ni-NTA agarose (QIAGEN, Hilden, Germany) in a total volume of 0.5 ml of buffer A [20 mM Tris/HCl (pH8.0) and 1 mM DTT] for 1 hr at 4° C. and washed once with buffer B [20 mM Tris/HCl (pH 7.4), 1 mM DTT, and 150 mM NaCl]. Synthetic FLAG-tagged peptides (1 nmol) were mixed with the beads immobilizing (His)6-tagged peptides in a total volume of 0.5 ml of buffer B for 2 hr at 4° C. on a rotating shaker, and washed three times with buffer B. The washed beads were mixed with 20 μl of 2× sampling buffer [100 mM Tris/HCl (pH6.8), 200 mM DTT, 4% (w/v) SDS, 0.2% bromophenol blue, and 20% (v/v) glycerol] and boiled. The supernatant was submitted to Tris/Tricine SDS-PAGE, followed by immunoblotting analysis with 1/5000 anti-FLAG monoclonal antibody M2 (Sigma).
# HN (self-dimerization) [3] = molecular target: T2, HN (self-dimerization) (Homo sapiens, UniProt Q8IVG9, S7A); experiment: as above; assay type: binding; conditions: excess amounts of competitor
# T2 construct: host or cells: chemically synthesised peptide (no expression host)
# T2 sequence (Q8IVG9 with tags, fused parts or gaps S7A): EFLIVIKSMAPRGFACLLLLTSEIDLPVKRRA
# Description: as §5
# [4] = tested on: F11 cells transfected with V642I-APP cDNA; experiment: F11 cell death by V642I-APP transfection (Trypan blue exclusion); assay type: cell-based
# Description: as §1, §4
# [5] = Apparent stability of peptides in the culture medium; assay type: physicochemical; conditions: 72-hr incubation of 10 μM peptides in the cultured medium; data not shown
# Description: The Ser^7 residue plays a role different from that of Ser^14. S7A substitution nullified the action of HN, while Ser^7 racemation had no influence. […] Given the fact that EFLIVIKS or EFLIVKS is the established amino acid sequence to form a dimer and that EFLIVIKS alone had no cytoprotective action, it is most likely that Ser^7 is essential for HN to self-dimerize and that self-dimerization of HN is essential for the action of HN. […] This level of stability alterations could not account for the drastic potentiation of the rescue action by the fusion with EFLIVIKS.
# HN (self-dimerization) [6] = experiment: Dimerization experiment (Ni-bead precipitation of FLAG-tagged peptide by (His)6-tagged peptide); assay type: binding; conditions: Ni-bead precipitation, anti-FLAG immunoblot
# Description: as §5
# [7] = tested on: F11 cells transfected with V642I-APP, NL-APP, M146L-PS1 or N141I-PS2 cDNA; assay type: cell-based, rat/mouse hybrid
# Description: as §4
# [8] = tested on: Aβ and four FAD genes (V642I-APP, NL-APP, M146L-PS1, and N141I-PS2); assay type: cell-based; conditions: Table 5, marked *
# Description: as §4, §2
# as §3, with “Most cell viability data using Calcein assay and WST-8 assay were obtained from neurons seeded at 5×10^4 cells/well in 96-well plates (high-density neurons) and confirmed by both assays with the cells seeded at 2.5×10^4 cells/well (low-density neurons).” left out
# [9] = tested on: primary cultured neurons treated with 25 μM Aβ1-43; conditions: as described previously [16]; read-out: IC50 of the HNG action against Aβ1-43-induced neuronal death; cited from earlier work
# (His)6-(S7A)HN = molecular target: T3, (His)6-(S7A)HN; experiment: Ni-bead pull-down, anti-FLAG immunoblot
# T3 construct: Synthetic peptide, immobilised on Ni-NTA agarose; also called His-S7A
# T3 peptide: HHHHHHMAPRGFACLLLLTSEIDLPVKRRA
# Description: as §5, with “(His)₆-tagged” for “(His)6-tagged”
# Synthetic (His)₆-HN was mixed with synthetic HN-FLAG, and precipitated by Ni-beads. The precipitate was examined with an anti-FLAG antibody for HN-FLAG. […] Under the same conditions, (S7A)HN-FLAG was not precipitated by (His)₆-(S7A)HN. EF-(S7A)HN-FLAG was precipitated by (His)₆-EF-(S7A)HN as efficiently as HN-FLAG precipitation by (His)₆-HN.
Molecule,"concentration up to which no neuroprotection against Aβ1-43 was exerted ([1]; 25 μM Aβ1-43, primary neurons) [µM]",Full protection (Aβ and V642I-APP),IC50 (Aβ and V642I-APP) [nM],effect of excess competitor on HN-FLAG precipitation by (His)6-HN (HN (self-dimerization) [2]),effect of excess competitor on EF-(S7A)HN-FLAG precipitation by (His)6-EF-(S7A)HN (HN (self-dimerization) [3]),amount of peptide relative to the amount at time zero [5],self-dimerization / complex formation (in words) (HN (self-dimerization) [6]),further results
"EFLIVIKS [dimerization peptide, reference compound]",> 100,NE** (the corresponding peptide had no cytoprotective effect at 10 μM),> 10000,could not interfere,blocked,–,–,–
EFLIVIKSMAPRGFACLLLLTSEIDLPVKRRA [EF-(S7A)HN],–,–,–,–,–,virtually unaltered,self-dimerizes through the EFLIVIKS region,"IC50 [1]: ~10 nM; concentration of full neuroprotection against Aβ1-43 ([1]; 25 μM Aβ1-43): 100 nM; suppression of Aβ neurotoxicity in the presence of 100 μM EFLIVIKS ([1]; 25 μM Aβ1-43, EF-HN and EF-HNG at 10 μM, WST-8 and Calcein assays): could not suppress Aβ neurotoxicity at all; IC50 [4]: 1 nM; concentration of full cytoprotection / complete suppression against V642I-APP ([4]; F11 cells): 100 nM; potency of cytoprotection against V642I-APP relative to HN ([4]; times higher than that of HN): about 100 times; Full protection (minimal concentration that exerted full cytoprotection) (Aβ and V642I-APP): ˜100 nM"
MAPRGFACLLLLTSEIDLPVKRRA [S7A HN],> 10,–,–,–,not,about ⅔,little activity for self-dimerization,concentration up to which no cytoprotection against V642I-APP was exerted ([4]; F11 cells): > 10 µM; cytoprotective action against FAD genes (in words) ([7]; V642I-APP): no effect; Full protection [8]: NE* (the corresponding peptide had no cytoprotective effect at 10 μM); IC50 ([8]; read-out: IC50): > 10000 nM
"MAPRGFSCLLLLTGEIDLPVKRRA [HNG, reference compound]",–,–,–,abolished,–,about ⅔,–,"IC50 ([7]; each of V642I-APP, read-out: IC50 of suppression of neuronal cell death by FAD genes): ~0.03 nM; Full protection (minimal concentration that exerted full cytoprotection) [8]: ˜10 nM; IC50 [9]: ~0.5 nM"
"YMAPRGFSCLLLLTGEIDLPVKKKK [HNG-KKK, HNG with its C-terminal KRRA substituted to KKKK]",> 10,NE** (the corresponding peptide had no cytoprotective effect at 10 μM),> 10000,no effect,–,–,little activity to form a complex with HN,"neuroprotective action against Aβ1-43 (in words) ([1]; 25 μM Aβ1-43, primary neurons): lost the neuroprotective action"
B1,–,–,–,–,–,–,–,binding result ((His)6-(S7A)HN): no binding (tested: 1 nmol of each peptide in 0.5 ml)

# Reference: patent publication US20050233413A1, “Neuroprotective polypeptides and methods of use” (priority 2002, published 2005)
